Key:
[1] = Antagonist activity against CRTh2 receptor in human eosinophils assessed as cell shape change by flow cytometry
[2] = Antagonist activity against CRTh2 receptor in human eosinophils assessed as cell shape change after 4 hrs by flow cytometry

SMILES | IC50 [1] | IC50 [2]
CCN(Cc1cc(-c2ccc(F)cn2)ccc1-c1cc(CC(=O)O)ccc1OC)C(=O)C1CC1 [2-(2'-((N-ethylcyclopropanecarboxamido)methyl)-4'-(5-fluoropyridin-2-yl)-6-methoxybiphenyl-3-yl)acetic acid] | 23 nM | –
CCN(Cc1cc(-c2cnc3ccccc3c2)ccc1-c1cc(CC(=O)O)ccc1OC)C(=O)C1CC1 [2-(2'-((N-ethylcyclopropanecarboxamido)methyl)-6-methoxy-4'-(quinolin-3-yl)biphenyl-3-yl)acetic acid] | 12 nM | –

More lines, now with the values ahead:

IC50 [1] | IC50 [2] | SMILES
4 nM | – | CCN(Cc1cc(-c2cnn(C)c2)ccc1-c1cc(CC(=O)O)ccc1OC)C(=O)C1CC1 [2-(2'-((N-ethylcyclopropanecarboxamido)methyl)-6-methoxy-4'-(1-methyl-1H-pyrazol-4-yl)biphenyl-3-yl)acetic acid]
18 nM | – | CCN(Cc1cc(-c2ncc(OC)cn2)ccc1-c1cc(CC(=O)O)ccc1OC)C(=O)C1CC1 [2-(2'-((N-ethylcyclopropanecarboxamido)methyl)-6-methoxy-4'-(5-methoxypyrimidin-2-yl)biphenyl-3-yl)acetic acid]
5 nM | 1.7 nM | CCOc1ccc(-c2ccc(-c3cc(CC(=O)O)ccc3OC)c(CN(CC)C(=O)C3CC3)c2)cn1 [Sodium [2'-[(cyclopropanecarbonyl-ethyl-amino)-methyl]-4'-(6-ethoxy-pyridin-3-yl)-6-methoxy-biphenyl-3-yl]-acetate]
